Test results from patent publication US20100130599A1 (priority 2008, published 2010).
Read-outs that look alike come from different tables or passages of the source.

Key:
[1] = biological target: T1, CYP2C9*8 (Homo sapiens, UniProt P11712, R150H); conditions: cited from earlier work
[2] = biological target: T1, CYP2C9*8; set-up: host or cells: human subjects carrying the CYP2C9*8 allele (in vivo phenotyping); conditions: CYP2C9*8 allele, cited from earlier work
[3] = Source text: A total of 226 African American patients having demographic and clinical parameters as depicted in Table 1 were studied.
Patients were enrolled from the pharmacist-managed anticoagulation clinics at the University of Illinois Medical Center at Chicago and at the University of Florida in Gainesville. […] Aquilante, C. […] Pharmacogenomics 8, 1535-44 (2007). Patients with a history of liver dysfunction or serum transaminase levels greater than 3 times the upper limit of normal were excluded.
After obtaining written informed consent and authorization for medical record review, a buccal cell sample was collected for genetic analysis, as previously described. Andrisin, T. E., Humma, L. M. & Johnson, J. A. Collection of genomic DNA by the noninvasive mouthwash method for use in pharmacogenetic studies. Pharmacotherapy 22, 954-60 (2002). Demographic, clinical, and social history were assessed through patient interview and review of the medical record. This study was approved by the Institutional Review Board at each institution.
Genomic DNA was isolated from buccal cells using a commercially available kit (PureGene,® Qiagen, Valencia, Calif.) according to kit manufacturer instructions. The CYP2C9 R144C (*2), […] (*3) and D360E (*5) alleles and VKORC1 −1639G>A genotype were determined as previously described. Aquilante, C. […] Clin Pharmacol Ther 79, 291-302 (2006); Hruska, M. W., Frye, R. F. & Langaee, T. Y. Pyrosequencing method for genotyping cytochrome P450 CYP2C8 and CYP2C9 enzymes. Clin Chem 50, 2392-5 (2004). The VKORC1 −4451A>C, 497G>T, and 3730A>G genotypes, and APOE 112C>T and 158C>T genotypes were determined by PCR and pyrosequencing. PCR and sequencing primers used were per Table 6.
Prior to determination of additional genotypes, genomic DNA was amplified by the whole genome amplification (WGA) technique, using the REPLI-g midi kit (Qiagen). Dean, F. B. et al. Comprehensive human genome amplification using multiple displacement amplification. Proc Natl Acad Sci USA 99, 5261-6 (2002) The fidelity of amplification was verified by comparing genotypes for CYP2C9*2, *3, *5 and VKORC1 −1639G>A determined before and after WGA. […] Reed, M. R. & Coty, W. A. in Microarrays: Preparation, Detection Methods, Data Analysis, and Applications (eds. Dill, K., Liu, R. & Grodzinski, P.) 247-60 (Springer-Verlag/Kluwer, 2009). The CYP2C9*8 genotype was determined by bi-directional DNA sequencing at Agencourt Biosciences after uniplex PCR amplification performed by Osmetech Molecular Diagnostics.
Data are expressed as numbers (percentages), mean±SD, or median (inter-quartile range). Height and weight were used to calculate body surface area (BSA). […] Hardy Weinberg Equilibrium (HWE) assumption was tested by χ^2 analysis. […] Dickmann, L. J. et al. Identification and functional characterization of a new CYP2C9 variant (CYP2C9*5) expressed among African Americans. Mol Pharmacol 60, 382-7 (2001); Allabi, A. C., Gala, J. L. & Horsmans, Y. CYP2C9, CYP2C19, ABCB1 (MDR1) genetic polymorphisms and phenytoin metabolism in a Black Beninese population. Pharmacogenet Genomics 15, 779-86 (2005); Blaisdell, J. et al. Discovery of new potentially defective alleles of human CYP2C9. Pharmacogenetics 14, 527-37 (2004) Carriers of a variant CYP2C9*8 allele were initially analyzed separately because of uncertainty regarding the functional effects of this allele.

CCCCc1nc(Cl)c(CO)n1Cc1ccc(-c2ccccc2-c2nnn[nH]2)cc1 [Losartran]
effect of *8 on in vivo metabolism [1]: little effect

O=C1NC(=O)C(c2ccccc2)(c2ccccc2)N1 [phenytoin]
urinary excretion of phenytoin metabolite ([2]; clinical study): reduced urinary excretion
effect of *8 on in vivo metabolism ([2]; in vivo): decreases in vivo metabolism

CC(=O)CC(c1ccccc1)c1c(O)c2ccccc2oc1=O (stereo not drawn) [warfarin]
Median (IQR) dose ([3]; APOE ε2/ε2, n=4): 35.5 (34.3-38.9) mg/week
Median (IQR) dose ([3]; APOE ε2/ε3, n=36): 40.0 (30.0-49.7) mg/week
Median (IQR) dose ([3]; APOE ε2/ε4, n=6): 61.3 (38.4-70.0) mg/week
Median (IQR) dose ([3]; APOE ε3/ε3, n=102): 40.0 (32.1-52.5) mg/week
Median (IQR) dose ([3]; APOE ε3/ε4, n=60): 43.8 (32.4-56.3) mg/week
Median (IQR) dose ([3]; APOE ε4/ε4, n=9): 45.0 (40.0-52.5) mg/week
warfarin dose, median (IQR) ([3]; APOE ε4 carriers): 45.0 (33.1-56.3) mg/week
warfarin dose, median (IQR) ([3]; APOE ε4 homozygotes): 45.0 (40.0-52.5) mg/week
Median (IQR) dose ([3]; CYP2C9 *1/*1, n=171): 42.5 (35.0-56.3) mg/week
Median (IQR) dose ([3]; CYP2C9 *1/*8 or *8/*8, n=24): 34.4 (29.5-47.3) mg/week
Median (IQR) dose ([3]; CYP2C9 *2, *3, *5, *6, or *11 allele, n=28): 33.1 (28.0-40.0) mg/week
Median (IQR) dose ([3]; CYP4F2 V433M M/M, n=3): 37.5 (28.8-56.3) mg/week
Median (IQR) dose ([3]; CYP4F2 V433M V/M, n=26): 40.0 (35.3-51.9) mg/week
Median (IQR) dose ([3]; CYP4F2 V433M V/V, n=194): 41.6 (32.5-55.0) mg/week
Median (IQR) dose ([3]; VKORC1 497T > G GG, n=1): 36.0 — mg/week
Median (IQR) dose ([3]; VKORC1 497T > G TG, n=16): 35.0 (27.5-36.3) mg/week
Median (IQR) dose ([3]; VKORC1 497T > G TT, n=208): 42.0 (32.5-56.1) mg/week
Median (IQR) dose ([3]; VKORC1 −1639G > A GA, n=33): 35.0 (27.5-42.5) mg/week
Median (IQR) dose ([3]; VKORC1 −4451C > A AA, n=3): 28.0 (26.5-30.3) mg/week
Median (IQR) dose ([3]; VKORC1 −4451C > A CA, n=22): 42.5 (31.0-55.6) mg/week
Median (IQR) dose ([3]; VKORC1 −4451C > A CC, n=200): 40.0 (32.5-55.0) mg/week
Median (IQR) dose ([3]; VKORC1.3730A > G AA, n=45): 42.0 (32.5-55.0) mg/week
Median (IQR) dose ([3]; VKORC1.3730A > G GA, n=121): 42.0 (34.0-56.3) mg/week
Median (IQR) dose ([3]; VKORC1.3730A > G GG, n=60): 37.5 (30.0-47.5) mg/week
Average INR ([3]; all patients (n = 226) on stable warfarin dose, mean ± SD): 2.5 ± 0.3
Therapeutic warfarin dose ([3]; all patients (n = 226), median (IQR)): 40.0 (32.5-55.0) mg/week
warfarin dose, median (IQR) ([3]; individuals with a CYP2C9*5, *6, *8, or *11 allele, n=40): 35.0 mg/wk
warfarin dose, median (IQR) ([3]; non-c4 homozygotes): 40.0 (32.0-55.0) mg/week
warfarin dose, median (IQR) ([3]; non-ε4 carriers): 40.0 (32.0-52.5) mg/week
median daily warfarin dose ([3]; study population, median (range)): 5.7 mg
